Reference: patent US20110152313A1 (MACQUARIE UNIVERSITY, priority 2008, published 2011)

How the values were obtained:
Experiment in all cases: kinase binding screen (kinase-tagged T7 phage, qPCR), % Ctrl
[1] = target: TYK2(JH2domain-pseudokinase) (Homo sapiens, UniProt P29597)
How it was run: (§1)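 Kinase-tagged T7 phage lysates were prepared in E. coli (MOI 0.4, 32° C until lysis), then exposed to ligand-bearing beads and test compound at a fixed concentration. Kinase remaining bound was eluted and measured by qPCR.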

[2] = target: T1, ULK1 (Homo sapiens, UniProt O75385)
T1 sequence (O75385 1-1050): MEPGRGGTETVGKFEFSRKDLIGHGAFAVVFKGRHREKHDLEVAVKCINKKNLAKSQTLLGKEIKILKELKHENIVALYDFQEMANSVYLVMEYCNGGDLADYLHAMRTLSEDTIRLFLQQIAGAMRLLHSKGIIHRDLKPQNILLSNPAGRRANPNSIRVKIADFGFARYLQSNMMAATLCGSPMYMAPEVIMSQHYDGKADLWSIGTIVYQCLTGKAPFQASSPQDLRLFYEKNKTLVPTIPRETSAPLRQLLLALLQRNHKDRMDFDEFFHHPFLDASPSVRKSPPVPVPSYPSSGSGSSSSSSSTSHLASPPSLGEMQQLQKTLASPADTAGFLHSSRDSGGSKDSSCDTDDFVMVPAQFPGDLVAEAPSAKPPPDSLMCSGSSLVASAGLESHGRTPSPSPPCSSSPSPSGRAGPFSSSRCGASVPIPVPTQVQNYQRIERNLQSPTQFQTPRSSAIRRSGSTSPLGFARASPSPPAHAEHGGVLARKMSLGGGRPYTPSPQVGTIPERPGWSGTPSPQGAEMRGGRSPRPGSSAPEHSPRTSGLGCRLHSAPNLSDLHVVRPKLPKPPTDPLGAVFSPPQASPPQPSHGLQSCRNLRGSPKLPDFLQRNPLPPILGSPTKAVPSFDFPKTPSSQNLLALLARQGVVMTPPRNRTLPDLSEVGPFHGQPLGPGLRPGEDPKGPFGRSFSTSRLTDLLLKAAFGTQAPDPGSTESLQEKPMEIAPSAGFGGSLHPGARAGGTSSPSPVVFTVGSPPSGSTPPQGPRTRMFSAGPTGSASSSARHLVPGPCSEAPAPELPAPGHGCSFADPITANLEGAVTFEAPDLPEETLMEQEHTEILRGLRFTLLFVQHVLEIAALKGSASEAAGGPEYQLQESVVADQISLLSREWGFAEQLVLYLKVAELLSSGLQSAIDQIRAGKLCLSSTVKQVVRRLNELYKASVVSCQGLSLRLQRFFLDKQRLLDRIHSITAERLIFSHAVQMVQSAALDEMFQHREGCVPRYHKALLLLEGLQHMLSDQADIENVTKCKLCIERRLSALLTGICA
How it was run: as §1

[3] = target: YANK2 (Homo sapiens, UniProt Q9NY57)
YANK2, sequence (Q9NY57 whole entry): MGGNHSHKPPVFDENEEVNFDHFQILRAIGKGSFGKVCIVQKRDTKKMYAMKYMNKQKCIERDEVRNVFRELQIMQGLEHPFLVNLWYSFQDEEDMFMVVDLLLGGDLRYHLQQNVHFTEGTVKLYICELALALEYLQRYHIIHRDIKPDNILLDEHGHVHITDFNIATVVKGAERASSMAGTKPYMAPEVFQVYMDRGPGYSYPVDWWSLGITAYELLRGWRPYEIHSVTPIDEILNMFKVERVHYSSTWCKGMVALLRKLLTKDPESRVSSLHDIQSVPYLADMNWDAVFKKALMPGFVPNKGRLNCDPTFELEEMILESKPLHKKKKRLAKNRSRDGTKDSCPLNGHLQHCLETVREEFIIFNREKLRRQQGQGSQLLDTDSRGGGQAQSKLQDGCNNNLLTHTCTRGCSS
How it was run: as §1

[4] = target: T2, IRAK3 (Homo sapiens, UniProt Q9Y616)
T2 sequence (Q9Y616 1-596): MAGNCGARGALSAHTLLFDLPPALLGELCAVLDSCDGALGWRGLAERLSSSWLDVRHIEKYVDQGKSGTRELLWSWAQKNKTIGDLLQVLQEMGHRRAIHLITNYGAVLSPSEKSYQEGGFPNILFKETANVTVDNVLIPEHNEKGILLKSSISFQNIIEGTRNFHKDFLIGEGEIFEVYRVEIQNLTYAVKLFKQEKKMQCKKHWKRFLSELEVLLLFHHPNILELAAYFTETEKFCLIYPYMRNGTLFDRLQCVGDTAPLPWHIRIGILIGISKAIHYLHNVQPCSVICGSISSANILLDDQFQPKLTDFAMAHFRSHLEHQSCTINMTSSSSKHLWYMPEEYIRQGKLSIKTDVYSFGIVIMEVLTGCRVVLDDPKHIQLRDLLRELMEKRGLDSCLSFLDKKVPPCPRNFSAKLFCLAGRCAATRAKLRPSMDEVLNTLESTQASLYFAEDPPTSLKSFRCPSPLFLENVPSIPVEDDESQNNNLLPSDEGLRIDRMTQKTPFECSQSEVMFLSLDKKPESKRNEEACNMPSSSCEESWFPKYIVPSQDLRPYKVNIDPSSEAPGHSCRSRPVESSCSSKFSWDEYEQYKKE
How it was run: as §1

[5] = target: T3, PRKCE (Homo sapiens, UniProt Q02156)
T3 sequence (Q02156 1-737): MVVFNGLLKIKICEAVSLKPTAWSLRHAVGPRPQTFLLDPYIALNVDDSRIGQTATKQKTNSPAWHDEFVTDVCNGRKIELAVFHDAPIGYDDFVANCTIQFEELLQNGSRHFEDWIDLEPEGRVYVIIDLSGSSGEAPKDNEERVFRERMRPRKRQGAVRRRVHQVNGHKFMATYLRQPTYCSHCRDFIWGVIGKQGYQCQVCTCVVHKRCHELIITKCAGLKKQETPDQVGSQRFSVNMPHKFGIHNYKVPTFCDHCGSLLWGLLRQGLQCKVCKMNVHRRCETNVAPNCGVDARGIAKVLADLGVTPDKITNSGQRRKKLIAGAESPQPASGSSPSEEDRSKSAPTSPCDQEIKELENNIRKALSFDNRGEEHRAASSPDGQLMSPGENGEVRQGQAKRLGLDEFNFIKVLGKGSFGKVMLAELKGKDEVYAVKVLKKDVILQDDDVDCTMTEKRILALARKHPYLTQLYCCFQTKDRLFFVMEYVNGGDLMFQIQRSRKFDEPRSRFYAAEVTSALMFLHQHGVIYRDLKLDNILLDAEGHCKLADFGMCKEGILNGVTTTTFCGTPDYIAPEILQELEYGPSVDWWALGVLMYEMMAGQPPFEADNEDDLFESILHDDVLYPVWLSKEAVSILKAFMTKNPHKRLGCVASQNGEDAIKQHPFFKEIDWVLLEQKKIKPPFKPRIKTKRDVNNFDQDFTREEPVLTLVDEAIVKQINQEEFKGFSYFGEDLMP
How it was run: as §1

TYK2(JH2domain-pseudokinase), sequence (P29597 589-875 limits assumed, species assumed): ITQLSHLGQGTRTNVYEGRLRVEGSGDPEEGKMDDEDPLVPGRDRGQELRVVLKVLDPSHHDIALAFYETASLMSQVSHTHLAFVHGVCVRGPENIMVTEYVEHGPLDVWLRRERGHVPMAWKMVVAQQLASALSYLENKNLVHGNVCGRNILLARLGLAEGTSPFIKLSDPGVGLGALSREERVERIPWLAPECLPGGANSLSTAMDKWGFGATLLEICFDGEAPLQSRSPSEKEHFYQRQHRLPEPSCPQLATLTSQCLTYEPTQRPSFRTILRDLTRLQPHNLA

Row | remaining activity at 10 µM ([1]; 10 μM) [%] | remaining activity at 10 µM ([2]; 10 μM) [%] | remaining activity at 10 µM ([3]; 10 μM) [%] | remaining activity at 10 µM ([4]; 10 μM) [%] | remaining activity at 10 µM ([5]; 10 μM) [%] | Structure (SMILES) | remaining activity at 1 µM [1] [%] | remaining activity at 1 µM [2] [%] | remaining activity at 1 µM [3] [%] | remaining activity at 1 µM [4] [%] | remaining activity at 1 µM [5] [%]
1 | 2 | 20 | 87 | 51 | 100 | Nc1nc2c(-c3cc(Br)c(Br)[nH]3)nccc2[nH]1 [Ageladine A, ageladine A, reference compound] | 23 | 62 | 93 | 85 | 54
2 |  |  |  |  |  | Nc1nc2c(-c3ccccn3)nccc2[nH]1 [drawing 35, 4-(pyrid-2-yl)-1H-imidazo[4,5-c]pyridin-2-amine] | 41 | 33 | 89 | 88 | 20
3 |  |  |  |  |  | Nc1nc2c(-c3cnc4ccccc4c3)nccc2[nH]1 [drawing 36, 4-(quinolin-3-yl)-1H-imidazo[4,5-c]pyridin-2-amine] | 25 | 91 | 50 | 56 | 100
